Laboratory results published in patent publication US20260356819A1, “OXOISOINDOLINYL-SUBSTITUTED […] DERIVATIVE AND USE THEREOF” (GLUETACS THERAPEUTICS (SHANGHAI) CO., LTD., priority 2023, published 2026).

Tests used:
IKZF2 = molecular target: T1, IKZF2 (Homo sapiens, UniProt Q96SW2+Q9UKS7); test: Western blot degradation of IKZF2 in hPBMCs (24 h); format: cell-based; conditions: compounds at 50 nM and 500 nM
T1 construct: The supernatant was aspirated as the extracted total cell protein; endogenous in cells; host or cells: human peripheral blood mononuclear cells (hPBMCs)
Procedure, shortened: (§1)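 hPBMCs (1×10^6 cells/mL) were treated with compound at 50 nM and 500 nM for 24 h, lysed in RIPA with protease inhibitors and analysed by SDS-PAGE/Western blot. Band grayscale, normalised to internal control, gave protein remaining (%); DC50 estimated versus DMSO bands.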

GSPT1 = molecular target: T2, GSPT1 (Homo sapiens, UniProt P15170+Q96SW2); test: Western blot degradation of GSPT1 in hPBMCs (24 h); format: cell-based; conditions: compounds at 50 nM and 500 nM
T2 construct: The supernatant was aspirated as the extracted total cell protein; endogenous in cells; host or cells: human peripheral blood mononuclear cells (hPBMCs)
Procedure, shortened: as §1

CK1α = molecular target: T3, CK1α (Homo sapiens, UniProt P48729+Q96SW2); test: Western blot degradation of CK1α in hPBMCs (24 h); format: cell-based; conditions: compounds at 50 nM and 500 nM
T3 construct: The supernatant was aspirated as the extracted total cell protein; endogenous in cells; host or cells: human peripheral blood mononuclear cells (hPBMCs)
Procedure, shortened: as §1

WEE1 = molecular target: T4, WEE1 (Homo sapiens, UniProt P30291+Q96SW2); test: Western blot degradation of WEE1 in hPBMCs (24 h); format: cell-based; conditions: compounds at 50 nM and 500 nM
T4 construct: The supernatant was aspirated as the extracted total cell protein; endogenous in cells; host or cells: human peripheral blood mononuclear cells (hPBMCs)
Procedure, shortened: as §1

IKZF1 = molecular target: T5, IKZF1 (Homo sapiens, UniProt Q13422+Q96SW2); test: Western blot degradation of IKZF1 in hPBMCs (24 h); format: cell-based; conditions: compounds at 50 nM and 500 nM
T5 construct: The supernatant was aspirated as the extracted total cell protein; endogenous in cells; host or cells: human peripheral blood mononuclear cells (hPBMCs)
Procedure, shortened: as §1

IKZF3 = molecular target: T6, IKZF3 (Homo sapiens, UniProt Q96SW2+Q9UKT9); test: Western blot degradation of IKZF3 in hPBMCs (24 h); format: cell-based; conditions: compounds at 50 nM and 500 nM
T6 construct: The supernatant was aspirated as the extracted total cell protein; endogenous in cells; host or cells: human peripheral blood mononuclear cells (hPBMCs)
Procedure, shortened: as §1

MM.1S cells = test: Inhibition of proliferation of multiple myeloma cells MM.1S (cell viability assay, 96 h); format: cell-based, human; conditions: read-out: inhibitory activity (IC50) against tumor cells proliferation, MM.1S
Experimental: The tumor cells used herein were cultured in a cell culture medium listed in table 2 at 37 °C in an incubator with 5% CO2. Prior to experimentation, all cell lines used were correctly identified by STR profiling, and tested negative for Mycoplasma contamination using a Mycoplasma detection kit through routine screenings.
The IC50 values of the compounds of the present disclosure (including the compounds in Table 1, and Examples 1-498) were determined using the CellTiter-Meiluncell Luminescent Cell Viability Assay Kit from Dalian Meilun Biotech Co., Ltd. The detailed procedure is as follows: Tumor cells were seeded in 96-well cell culture plates at the densities specified in Table 3. On the following day, the test compounds of the present disclosure were subjected to serial dilution. […] Subsequently, 0.5 μL of the test compound dilution was transferred into the 96-well plate containing the cells, with each well containing 100 μL of cell culture medium. […] Into the 96-well plate, the diluted test compounds and corresponding detection reagents were added, resulting in final test compound concentrations of 500 nM and 10 nM, respectively. The experimental procedure is described below using the diluted 2 μM test compound as an example.
0.5 μL of the aforementioned diluted compound of the present disclosure (including the compounds in Table 1, and Examples 1-498) was added to the seeded cells in 100 μL of medium, yielding a final test compound concentration of 10 nM. After the cells were treated with the compounds of the present disclosure for a specified period, the cell viability assay reagent was added to the culture medium according to the kit's instructions to determine cell viability. […] All controls were treated using the same procedure as the compounds of the present disclosure. The growth inhibition curves for the compounds of the present disclosure were plotted using Prism GraphPad software, and the IC50 values were calculated therefrom.

T3 sequence (P48729 whole entry): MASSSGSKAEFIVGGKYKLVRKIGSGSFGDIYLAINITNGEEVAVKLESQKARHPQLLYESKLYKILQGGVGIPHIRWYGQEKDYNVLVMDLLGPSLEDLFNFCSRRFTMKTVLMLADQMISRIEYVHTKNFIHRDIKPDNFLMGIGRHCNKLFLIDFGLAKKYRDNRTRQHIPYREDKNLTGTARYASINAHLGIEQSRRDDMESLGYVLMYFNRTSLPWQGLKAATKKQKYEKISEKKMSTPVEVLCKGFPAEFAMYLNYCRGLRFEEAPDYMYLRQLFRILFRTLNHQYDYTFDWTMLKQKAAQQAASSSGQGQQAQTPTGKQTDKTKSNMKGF
T3 sequence (Q96SW2 whole entry): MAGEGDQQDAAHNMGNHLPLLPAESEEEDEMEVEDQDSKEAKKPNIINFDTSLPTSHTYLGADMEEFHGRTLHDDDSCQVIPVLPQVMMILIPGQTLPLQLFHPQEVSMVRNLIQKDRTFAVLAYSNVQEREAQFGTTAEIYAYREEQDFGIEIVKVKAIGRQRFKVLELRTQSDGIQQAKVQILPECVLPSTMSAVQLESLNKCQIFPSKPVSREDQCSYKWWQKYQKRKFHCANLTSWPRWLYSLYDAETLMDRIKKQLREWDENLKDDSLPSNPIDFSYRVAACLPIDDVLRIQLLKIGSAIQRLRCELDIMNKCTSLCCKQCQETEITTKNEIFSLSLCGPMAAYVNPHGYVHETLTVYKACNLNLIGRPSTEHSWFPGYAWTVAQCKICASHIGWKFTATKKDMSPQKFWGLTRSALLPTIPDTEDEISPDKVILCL
T3 sequence (Q16531 whole entry partner): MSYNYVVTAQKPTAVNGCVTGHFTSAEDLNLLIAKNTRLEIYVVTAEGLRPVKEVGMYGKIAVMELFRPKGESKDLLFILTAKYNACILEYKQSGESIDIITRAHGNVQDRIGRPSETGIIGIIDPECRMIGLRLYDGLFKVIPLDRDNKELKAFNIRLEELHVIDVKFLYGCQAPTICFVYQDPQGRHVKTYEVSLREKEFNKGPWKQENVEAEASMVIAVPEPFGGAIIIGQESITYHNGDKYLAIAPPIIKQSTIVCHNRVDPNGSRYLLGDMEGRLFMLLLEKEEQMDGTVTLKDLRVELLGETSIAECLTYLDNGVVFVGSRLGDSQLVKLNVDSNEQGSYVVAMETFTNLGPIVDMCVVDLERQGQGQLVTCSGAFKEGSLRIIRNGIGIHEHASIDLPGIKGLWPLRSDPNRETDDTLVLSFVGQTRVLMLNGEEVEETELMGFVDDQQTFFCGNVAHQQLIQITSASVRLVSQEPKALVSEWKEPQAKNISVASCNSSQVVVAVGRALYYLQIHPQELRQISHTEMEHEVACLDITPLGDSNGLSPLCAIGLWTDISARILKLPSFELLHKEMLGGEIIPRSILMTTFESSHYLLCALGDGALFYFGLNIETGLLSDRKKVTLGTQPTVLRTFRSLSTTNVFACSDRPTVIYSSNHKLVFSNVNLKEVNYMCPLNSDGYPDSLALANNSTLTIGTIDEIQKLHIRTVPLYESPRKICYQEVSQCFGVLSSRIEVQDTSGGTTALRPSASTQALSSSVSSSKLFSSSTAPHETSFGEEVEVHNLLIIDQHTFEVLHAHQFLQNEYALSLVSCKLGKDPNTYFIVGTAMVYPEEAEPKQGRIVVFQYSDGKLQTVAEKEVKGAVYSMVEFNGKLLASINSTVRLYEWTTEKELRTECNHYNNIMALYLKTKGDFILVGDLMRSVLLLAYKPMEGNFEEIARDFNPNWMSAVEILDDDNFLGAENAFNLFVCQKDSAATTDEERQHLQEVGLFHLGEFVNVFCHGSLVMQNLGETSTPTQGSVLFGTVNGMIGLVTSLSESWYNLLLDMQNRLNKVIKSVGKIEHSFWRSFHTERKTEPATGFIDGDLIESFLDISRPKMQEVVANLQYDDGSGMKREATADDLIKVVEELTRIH
T4 sequence (P30291 whole entry): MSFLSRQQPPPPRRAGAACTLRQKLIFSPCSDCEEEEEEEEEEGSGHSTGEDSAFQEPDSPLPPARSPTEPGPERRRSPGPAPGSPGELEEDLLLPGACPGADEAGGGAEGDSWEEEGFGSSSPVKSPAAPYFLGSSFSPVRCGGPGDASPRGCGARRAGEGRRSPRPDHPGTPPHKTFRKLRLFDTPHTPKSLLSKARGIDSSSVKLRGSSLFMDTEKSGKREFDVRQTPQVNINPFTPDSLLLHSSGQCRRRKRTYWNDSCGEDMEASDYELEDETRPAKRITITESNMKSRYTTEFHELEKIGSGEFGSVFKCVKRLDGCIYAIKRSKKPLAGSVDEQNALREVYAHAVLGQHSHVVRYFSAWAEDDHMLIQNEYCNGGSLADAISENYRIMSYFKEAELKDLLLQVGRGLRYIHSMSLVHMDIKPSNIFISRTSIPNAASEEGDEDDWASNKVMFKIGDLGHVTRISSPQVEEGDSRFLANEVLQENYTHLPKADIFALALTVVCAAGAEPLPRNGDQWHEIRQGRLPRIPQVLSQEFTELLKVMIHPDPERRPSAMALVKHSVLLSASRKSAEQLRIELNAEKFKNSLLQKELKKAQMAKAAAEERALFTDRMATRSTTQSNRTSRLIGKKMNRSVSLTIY
T4 sequence (Q96SW2 whole entry): as the sequence (Q96SW2 whole entry) above
T4 sequence (Q16531 whole entry partner): as the sequence (Q16531 whole entry partner) above
T6 sequence (Q9UKT9 whole entry): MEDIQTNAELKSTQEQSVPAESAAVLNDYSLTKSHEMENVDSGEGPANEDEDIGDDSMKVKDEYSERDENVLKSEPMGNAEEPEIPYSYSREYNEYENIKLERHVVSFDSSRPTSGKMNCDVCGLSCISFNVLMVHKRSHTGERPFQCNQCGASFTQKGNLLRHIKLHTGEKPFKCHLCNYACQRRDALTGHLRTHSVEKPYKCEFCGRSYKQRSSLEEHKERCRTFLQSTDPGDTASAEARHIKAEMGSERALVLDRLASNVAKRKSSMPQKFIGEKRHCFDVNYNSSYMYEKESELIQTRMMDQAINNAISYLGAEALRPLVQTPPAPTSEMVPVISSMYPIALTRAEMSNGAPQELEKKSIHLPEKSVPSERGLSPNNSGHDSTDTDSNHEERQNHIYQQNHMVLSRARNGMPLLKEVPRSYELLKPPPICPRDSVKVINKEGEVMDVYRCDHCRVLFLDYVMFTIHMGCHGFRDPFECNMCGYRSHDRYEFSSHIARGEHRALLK
T6 sequence (Q96SW2 whole entry): as the sequence (Q96SW2 whole entry) above
T6 sequence (Q16531 whole entry partner): as the sequence (Q16531 whole entry partner) above
T2 sequence (P15170 whole entry): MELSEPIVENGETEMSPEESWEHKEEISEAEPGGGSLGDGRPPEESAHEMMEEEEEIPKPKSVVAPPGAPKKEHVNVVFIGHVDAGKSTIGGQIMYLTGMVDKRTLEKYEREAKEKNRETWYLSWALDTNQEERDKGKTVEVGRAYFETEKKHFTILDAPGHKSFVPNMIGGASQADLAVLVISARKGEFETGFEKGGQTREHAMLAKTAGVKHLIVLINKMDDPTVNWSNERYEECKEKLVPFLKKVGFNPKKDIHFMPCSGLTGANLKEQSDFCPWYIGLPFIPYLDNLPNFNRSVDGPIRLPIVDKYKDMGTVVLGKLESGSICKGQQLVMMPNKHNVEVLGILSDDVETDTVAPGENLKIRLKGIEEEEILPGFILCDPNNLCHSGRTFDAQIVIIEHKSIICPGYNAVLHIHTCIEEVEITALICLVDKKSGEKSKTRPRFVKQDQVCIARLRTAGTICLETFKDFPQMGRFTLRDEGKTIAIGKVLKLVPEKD
T2 sequence (Q96SW2 whole entry): as the sequence (Q96SW2 whole entry) above
T2 sequence (Q16531 whole entry partner): as the sequence (Q16531 whole entry partner) above
T1 sequence (Q9UKS7 whole entry): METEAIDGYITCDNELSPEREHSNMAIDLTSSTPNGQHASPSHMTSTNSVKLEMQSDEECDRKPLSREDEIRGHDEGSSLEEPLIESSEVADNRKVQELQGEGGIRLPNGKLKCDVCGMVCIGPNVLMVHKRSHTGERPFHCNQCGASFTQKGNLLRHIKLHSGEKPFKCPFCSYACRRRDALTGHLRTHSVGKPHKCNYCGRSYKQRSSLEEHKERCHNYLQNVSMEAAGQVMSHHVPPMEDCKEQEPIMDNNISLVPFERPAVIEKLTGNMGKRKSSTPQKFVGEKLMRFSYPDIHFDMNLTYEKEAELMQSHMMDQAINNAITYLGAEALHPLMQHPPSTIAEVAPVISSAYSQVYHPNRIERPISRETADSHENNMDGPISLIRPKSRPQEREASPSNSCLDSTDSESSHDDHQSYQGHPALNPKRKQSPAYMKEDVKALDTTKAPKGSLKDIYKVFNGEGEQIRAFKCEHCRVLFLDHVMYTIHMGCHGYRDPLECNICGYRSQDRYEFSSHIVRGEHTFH
T1 sequence (Q96SW2 whole entry): as the sequence (Q96SW2 whole entry) above
T1 sequence (Q16531 whole entry partner): as the sequence (Q16531 whole entry partner) above

Row | SMILES | IKZF2 substrate protein remaining % (IKZF2) | GSPT1 substrate protein remaining % (GSPT1) | CK1α substrate protein remaining % (CK1α) | WEE1 substrate protein remaining % (WEE1) | IKZF1 substrate protein remaining % (IKZF1) | IKZF3 substrate protein remaining % (IKZF3) | IC50 (MM.1S cells) [µM]
1 | O=C1CCN(N2Cc3cc(CN4CCN(C(c5ccc(F)cc5)c5ccc(F)cc5)CC4)ccc3C2=O)C(=O)N1 [GT-04894, 1-(5-((4-(bis(4-fluorophenyl)methyl)piperazin-1-yl)methyl)-1-oxoisoindolin-2-yl)dihydropyrimidine-2,4(1H,3H)-dione] | A (0% ≤ substrate protein remaining % ≤80%) | A (0% ≤ substrate protein remaining % ≤80%) | B (80%< substrate protein remaining % ≤100%) | A (0% ≤ substrate protein remaining % ≤80%) | A (0% ≤ substrate protein remaining % ≤80%) | B (80%< substrate protein remaining % ≤100%) | 0.5 to 1
2 | CC1(C)CCC(CN2CCN(Cc3ccc4c(c3)CN(N3CCC(=O)NC3=O)C4=O)CC2)=C(c2ccc(Cl)cc2)C1 [GT-04944, 1-(5-((4-((4′-chloro-5,5-dimethyl-3,4,5,6-tetrahydro-[1,1′-biphenyl]-2-yl)methyl)piperazin-1-yl)methyl)-1-oxoisoindolin-2-yl)dihydropyrimidine-2,4(1H,3H)-dione] | B (80%< substrate protein remaining % ≤100%) | A (0% ≤ substrate protein remaining % ≤80%) | B (80%< substrate protein remaining % ≤100%) | B (80%< substrate protein remaining % ≤100%) | B (80%< substrate protein remaining % ≤100%) | B (80%< substrate protein remaining % ≤100%) | 0.5 to 1
3 | O=C1CCN(N2Cc3cc(CN4CCN(c5cccc(Cl)n5)CC4)ccc3C2=O)C(=O)N1 [GT-05126, 1-(5-((4-(6-chloropyridin-2-yl)piperazin-1-yl)methyl)-1-oxoisoindolin-2-yl)dihydropyrimidine-2,4(1H,3H)-dione] | A (0% ≤ substrate protein remaining % ≤80%) | A (0% ≤ substrate protein remaining % ≤80%) | A (0% ≤ substrate protein remaining % ≤80%) | A (0% ≤ substrate protein remaining % ≤80%) | A (0% ≤ substrate protein remaining % ≤80%) | A (0% ≤ substrate protein remaining % ≤80%) | 0.3 to 0.5
4 | O=C1CCN(N2Cc3cc(CN4CCN(c5ccc(Cl)cn5)CC4)ccc3C2=O)C(=O)N1 [GT-05127, 1-(5-((4-(5-chloropyridin-2-yl)piperazin-1-yl)methyl)-1-oxoisoindolin-2-yl)dihydropyrimidine-2,4(1H,3H)-dione] | B (80%< substrate protein remaining % ≤100%) | A (0% ≤ substrate protein remaining % ≤80%) | A (0% ≤ substrate protein remaining % ≤80%) | A (0% ≤ substrate protein remaining % ≤80%) | A (0% ≤ substrate protein remaining % ≤80%) | A (0% ≤ substrate protein remaining % ≤80%) | 0.5 to 1
5 | O=C1CCN(N2Cc3cc(CN4C[C@@H]5C[C@H]4CN5c4cccc(Cl)c4Cl)ccc3C2=O)C(=O)N1 [GT-05163, 1-(5-(((1S,4S)-5-(2,3-dichlorophenyl)-2,5-diazabicyclo[2.2.1]heptan-2-yl)methyl)-1-oxoisoindolin-2-yl)dihydropyrimidine-2,4(1H,3H)-dione] | A (0% ≤ substrate protein remaining % ≤80%) | A (0% ≤ substrate protein remaining % ≤80%) | B (80%< substrate protein remaining % ≤100%) | B (80%< substrate protein remaining % ≤100%) | A (0% ≤ substrate protein remaining % ≤80%) | A (0% ≤ substrate protein remaining % ≤80%) | 0.5 to 1
